Read-outs that look alike come from different tables or passages of the source.
Tests used:
[1] = target: T1, IRAK4 (Homo sapiens (Human), UniProt Q9NWZ3); assay: IRAK4 Biochemical HTRF Kinase Assay; conditions: read-out: IRAK4 HTRF biochemical: IC50
In short: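 HTRF KinEASE STK S1 format measuring IRAK4 phosphorylation of biotinylated peptide; reaction solution of 5 μM STK-S1, 10 mM ATP, 10 mM MgCl2 added (stock, to 10 μl final), 90 min at ambient temperature, detection 60 min. IC50 from sixteen-point duplicate curves by non-linear regression.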
Target sequence in this assay (Q9NWZ3 whole entry, species assumed): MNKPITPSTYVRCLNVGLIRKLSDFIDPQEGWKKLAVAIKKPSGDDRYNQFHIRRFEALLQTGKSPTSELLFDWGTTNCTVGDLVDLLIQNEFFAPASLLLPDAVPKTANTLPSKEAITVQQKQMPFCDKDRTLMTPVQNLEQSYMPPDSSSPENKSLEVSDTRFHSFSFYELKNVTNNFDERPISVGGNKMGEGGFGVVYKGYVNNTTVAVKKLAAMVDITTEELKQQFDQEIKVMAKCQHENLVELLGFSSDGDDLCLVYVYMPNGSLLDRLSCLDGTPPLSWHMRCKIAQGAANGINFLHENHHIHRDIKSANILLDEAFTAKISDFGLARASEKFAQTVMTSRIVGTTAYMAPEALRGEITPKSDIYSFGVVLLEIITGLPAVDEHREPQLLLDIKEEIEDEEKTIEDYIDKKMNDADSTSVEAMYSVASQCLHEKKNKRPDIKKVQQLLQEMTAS

[2] = target: T1, IRAK4; assay: IRAK4 Degradation HiBiT Assay; conditions: HiBiT-tagged Jurkat cells, 4 hrs; for Dmax: Jurkat; for DC50: read-out: Cellular IRAK4 HiBiT: DC50
Target sequence in this assay (Q9NWZ3 whole entry): as the sequence (Q9NWZ3 whole entry, species assumed) above

[3] = read-out: Cellular IRAK4 HiBiT: Dmax, Table 5, multiple runs
[4] = read-out: Cellular IRAK4 HiBiT: Dmax, Table 4

Row | IC50 ([1]; Table 5, multiple runs) | Dmax [2, 3] | DC50 ([2]; Table 5, multiple runs) | IC50 ([1]; Table 4) | Dmax [2, 4] | DC50 ([2]; Table 4) | Compound
1 | 0.9 nM | 113% | 63 nM |  |  |  | CNc1cc(-c2ccc3cc(C#N)cnn23)ncc1-c1nnc([C@H]2CC[C@H](NC(=O)C3CCN(c4ccc5c(c4)C(=O)N(C4CCC(=O)NC4=O)C5=O)CC3)CC2)s1 (stereo partly drawn) [Example 152, N-((1r,4r)-4-(5-(6-(3-cyanopyrrolo[1,2-b]pyridazin-7-yl)-4-(methylamino)pyridin-3-yl)-1,3,4-thiadiazol-2-yl)cyclohexyl)-1-(2-(2,6-dioxopiperidin-3-yl)-1,3-dioxoisoindolin-5-yl)piperidine-4-carboxamide]
2 | 2.6 nM | 44% | 99.7 nM |  |  |  | CNc1cc(-c2ccc3cc(C#N)cnn23)ncc1-c1nnc(C23CCC(NC(=O)CCCCCCCNc4ccc5c(c4)C(=O)N(C4CCC(=O)NC4=O)C5=O)(CC2)CC3)s1 (stereo not drawn) [Example 107, N-(4-(5-(6-(3-cyanopyrrolo[1,2-b]pyridazin-7-yl)-4-(methylamino)pyridin-3-yl)-1,3,4-thiadiazol-2-yl)bicyclo[2.2.2]octan-1-yl)-8-((2-(2,6-dioxopiperidin-3-yl)-1,3-dioxoisoindolin-5-yl)amino)octanamide]

Further lines, the molecule ahead of its results:

Row | Compound | IC50 ([1]; Table 5, multiple runs) | Dmax [2, 3] | DC50 ([2]; Table 5, multiple runs) | IC50 ([1]; Table 4) | Dmax [2, 4] | DC50 ([2]; Table 4)
3 | CC(C)Nc1cc(-c2ccc3cc(C#N)cnn23)ncc1-c1nnc(N2CCN(C(=O)C3CCN(C[C@H]4CCN(c5ccc6c(c5)C(=O)N(C5CCC(=O)NC5=O)C6=O)C4)CC3)CC2)s1 (stereo partly drawn) [Example 12, 7-(5-(5-(4-(1-(((3R)-1-(2-(2,6-dioxopiperidin-3-yl)-1,3-dioxoisoindolin-5-yl)pyrrolidin-3-yl)methyl)piperidine-4-carbonyl)piperazin-1-yl)-1,3,4-thiadiazol-2-yl)-4-(isopropylamino)pyridin-2-yl)pyrrolo[1,2-b]pyridazine-3-carbonitrile] | 1.2 nM | 91% | 98.1 nM | 1.2 nM | 92% | 108 nM
4 | CNc1cc(-c2ccc3cc(C#N)cnn23)ncc1-c1nnc(N2CCN(C3CCN(C(=O)Cc4ccc5c(c4)CN(C4CCC(=O)NC4=O)C5=O)CC3)CC2)s1 (stereo not drawn) [Example 100, 7-(5-(5-(4-(1-(2-(2-(2,6-dioxopiperidin-3-yl)-1-oxoisoindolin-5-yl)acetyl)piperidin-4-yl)piperazin-1-yl)-1,3,4-thiadiazol-2-yl)-4-(methylamino)pyridin-2-yl)pyrrolo[1,2-b]pyridazine-3-carbonitrile] | 0.4 nM | 111% | 4.41 nM |  |  | 
5 | CNc1cc(-c2ccc3cc(C#N)cnn23)ncc1-c1nnc(N2CCN(C3CCN(C(=O)c4ccc5c(c4)C(=O)N(C4CCC(=O)NC4=O)C5=O)CC3)CC2)s1 (stereo not drawn) [Example 98, 7-(5-(5-(4-(1-(2-(2,6-dioxopiperidin-3-yl)-1,3-dioxoisoindoline-5-carbonyl)piperidin-4-yl)piperazin-1-yl)-1,3,4-thiadiazol-2-yl)-4-(methylamino)pyridin-2-yl)pyrrolo[1,2-b]pyridazine-3-carbonitrile] | 0.3 nM | 109% | 6.58 nM |  |  | 
6 | N#Cc1cnn2c(-c3cc(NC4CCOCC4)c(-c4nnc(C56CCC(NC(=O)CCOCCOCCNc7cccc8c7C(=O)N(C7CCC(=O)NC7=O)C8=O)(CC5)CC6)s4)cn3)ccc2c1 (stereo not drawn) [Example 1, N-(4-(5-(6-(3-cyanopyrrolo[1,2-b]pyridazin-7-yl)-4-((tetrahydro-2H-pyran-4-yl)amino)pyridin-3-yl)-1,3,4-thiadiazol-2-yl)bicyclo[2.2.2]octan-1-yl)-3-(2-(2-((2-(2,6-dioxopiperidin-3-yl)-1,3-dioxoisoindolin-4-yl)amino)ethoxy)ethoxy)propanamide] | 2 nM | 60% | 22.9 nM | 1.8 nM | 65% | 23.8 nM

— US12528814B2, “Bifunctional degraders of interleukin-1 receptor-associated kinases and therapeutic use thereof” (NURIX THERAPEUTICS, INC., priority 2020, dated 2026)
